According to patent US20250304623A1, “PEPTIDES FOR INTRACELLULAR DELIVERY” (UNIVERSIDADE DE SANTIAGO DE COMPOSTELA, priority 2022, published 2025):
*: point of attachment. NHNH2 = NN*

Tests used:
Type in all cases: cell-based
A549 cells = experiment: RLuc pDNA delivery, robotic library screening, A549
Procedure, shortened: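 A549 cells in DMEM+10% FBS were washed twice with PBS and exposed for 4 h to amphiphile/RLuc pDNA complexes prepared from DMSO stocks diluted in DMEM. After medium replacement and 72 hours, cells in HBSS were incubated at 37° C. for 30 minutes, basal then total luminescence measured after 5 μM coelenterazine h; background from untransfected cells was subtracted.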

Hela cells = experiment: RLuc pDNA delivery, robotic library screening, HeLa
[1] = test system: ARPE19 cells expressing EGFP; experiment: EGFP-targeting siRNA delivery (GFP silencing vs siMOCK), ARPE19
Procedure, shortened: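 This siRNA delivery assay used stably EGFP-expressing cells seeded a day ahead in 96-well plates. siGFP and amphiphile were combined in DMEM at a constant 30 nM siRNA, incubated 30 min at room temperature, then applied for 4 h before switching to fresh DMEM with 10% FBS. After 72 h, a plate reader measured fluorescence decrease relative to non-targeting siMOCK, subtracting untreated background.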

[2] = test system: Hek293 cells expressing EGFP; experiment: EGFP-targeting siRNA delivery (GFP silencing vs siMOCK), Hek293

Ac-RRLK*RLLRRLK*RLK*RRL-NH2 (Ac-RRLK(NHNH2)RLLRRLK(NHNH2)RLK(NHNH2)RRL-NH2; not fully specified; printed as Ac-RRLK*RLLRRLK*RLK*RRL-NH2; also: K*4,K*11,K*14: native or modified lysine (ε-amide to a linker)) [Peptide 17.3]
mean luminescent intensity (RLuc pDNA) (A549 cells; Dodecanal, 10 μM): 1381 RLU | mean luminescent intensity (RLuc pDNA) (A549 cells; Dodecanal, 15 μM): 1660 RLU | mean luminescent intensity (RLuc pDNA) (A549 cells; Myristoleyl, 10 μM): 1545 RLU | mean luminescent intensity (RLuc pDNA) (A549 cells; Myristoleyl, 15 μM): 2581 RLU | mean luminescent intensity (RLuc pDNA) (A549 cells; Oleyl, 10 μM): 1201 RLU | mean luminescent intensity (RLuc pDNA) (A549 cells; Oleyl, 15 μM): 1552 RLU | mean luminescent intensity (RLuc pDNA) (A549 cells; Palmitoleyl, 5 μM): 2518 RLU | mean luminescent intensity (RLuc pDNA) (A549 cells; Palmitoleyl, 15 μM): 2585 RLU | mean luminescent intensity (RLuc pDNA) (A549 cells; Petroselinyl, 15 μM): 2614 RLU | mean luminescent intensity (RLuc pDNA) (Hela cells; HeLa, Petroselinyl, 10 μM): 85712 RLU | mean luminescent intensity (RLuc pDNA) (Hela cells; Hela, Dodecanal, 10 μM): 1535 RLU | mean luminescent intensity (RLuc pDNA) (Hela cells; Hela, Dodecanal, 15 μM): 1856 RLU | mean luminescent intensity (RLuc pDNA) (Hela cells; Hela, Myristoleyl, 5 μM): 309 RLU | mean luminescent intensity (RLuc pDNA) (Hela cells; Hela, Myristoleyl, 10 μM): −392 RLU | mean luminescent intensity (RLuc pDNA) (Hela cells; Hela, Oleyl, 10 μM): 2071 RLU | mean luminescent intensity (RLuc pDNA) (Hela cells; Hela, Oleyl, 15 μM): 2261 RLU | mean luminescent intensity (RLuc pDNA) (Hela cells; Hela, Palmitoleyl, 5 μM): 190106 RLU | mean luminescent intensity (RLuc pDNA) (Hela cells; Hela, Palmitoleyl, 10 μM): 246511 RLU | mean luminescent intensity (RLuc pDNA) (Hela cells; Hela, Palmitoleyl, 15 μM): 163602 RLU | mean luminescent intensity (RLuc pDNA) (Hela cells; Hela, Petroselinyl, 5 μM): 237718 RLU | mean luminescent intensity (RLuc pDNA) (Hela cells; Hela, Petroselinyl, 15 μM): 7153 RLU | percentage of GFP-silencing relative to siMOCK ([1]; Dodecanal, 5 μM): 29% | percentage of GFP-silencing relative to siMOCK ([1]; Dodecanal, 10 μM): 14% | percentage of GFP-silencing relative to siMOCK ([1]; Dodecanal, 15 μM): 22% | percentage of GFP-silencing relative to siMOCK ([1]; Myristoleyl, 5 μM): 43% | percentage of GFP-silencing relative to siMOCK ([1]; Myristoleyl, 15 μM): −5% | percentage of GFP-silencing relative to siMOCK ([1]; Oleyl, 10 μM): 22% | percentage of GFP-silencing relative to siMOCK ([1]; Palmitoleyl, 5 μM): 36% | percentage of GFP-silencing relative to siMOCK ([1]; Palmitoleyl, 10 μM): 24% | percentage of GFP-silencing relative to siMOCK ([1]; Palmitoleyl, 15 μM): −4% | percentage of GFP-silencing relative to siMOCK ([1]; Petroselinyl, 5 μM): 36% | percentage of GFP-silencing relative to siMOCK ([1]; Petroselinyl, 10 μM): 20% | percentage of GFP-silencing relative to siMOCK ([2]; Myristoleyl, 10 μM): 48% | percentage of GFP-silencing relative to siMOCK ([2]; Oleyl, 15 μM): 25% | percentage of GFP-silencing relative to siMOCK ([2]; Palmitoleyl, 10 μM): 37% | percentage of GFP-silencing relative to siMOCK ([2]; Petroselinyl, 5 μM): 9% | percentage of GFP-silencing relative to siMOCK ([2]; Petroselinyl, 15 μM): 52%
